Laboratory results as given in article PMC12203311, “Design, synthesis, in silico and in vitro evaluation of pyrrole–indole hybrids as dual tubulin and aromatase inhibitors with potent anticancer activities” (RSC Advances, 2025).
Read-outs that look alike come from different tables or passages of the source.

Tests used:
MDA-MB-468 = assay: NCI60 five-dose screen; type: cell-based; conditions: Homo sapiens, MDA-MB-468, breast cancer; for CC50: read-out: LC50 (the source's name)
HCT-116 = assay: NCI60 five-dose screen; type: cell-based; conditions: Homo sapiens, HCT-116, colon cancer; for CC50: read-out: LC50 (the source's name)
COLO 205 = assay: NCI60 five-dose screen; type: cell-based, human; conditions: for CC50: read-out: LC50 (the source's name)
CAKI-1 = assay: NCI60 five-dose screen; type: cell-based; conditions: Homo sapiens, CAKI-1, renal cancer; for CC50: read-out: LC50 (the source's name)
RPMI-8226 = assay: NCI60 five-dose screen; type: cell-based; conditions: Homo sapiens, RPMI-8226, leukemia; for CC50: read-out: LC50 (the source's name)
CCRF-CEM = assay: NCI60 five-dose screen; type: cell-based; conditions: Homo sapiens, leukemia; for CC50: read-out: LC50 (the source's name)
ACHN = assay: NCI60 five-dose screen; type: cell-based; conditions: Homo sapiens, renal cancer; for CC50: read-out: LC50 (the source's name)
IGROV1 = assay: NCI60 five-dose screen; type: cell-based; conditions: Homo sapiens, IGROV-1; IGROV1, ovarian cancer
TK-10 = assay: NCI60 five-dose screen; type: cell-based; conditions: Homo sapiens, TK-10, renal cancer; for CC50: read-out: LC50 (the source's name)
SNB-75 = assay: NCI60 five-dose screen; type: cell-based; conditions: Homo sapiens, SNB-75, CNS cancer; for CC50: read-out: LC50 (the source's name)
UACC-62 = assay: NCI60 five-dose screen; type: cell-based; conditions: Homo sapiens, UACC-62, melanoma; for CC50: read-out: LC50 (the source's name)
SN12C = assay: NCI60 five-dose screen; type: cell-based; conditions: Homo sapiens, renal cancer; for CC50: read-out: LC50 (the source's name)
U251 = assay: NCI60 five-dose screen; type: cell-based; conditions: Homo sapiens, U-251, U251, CNS cancer; for CC50: read-out: LC50 (the source's name)
LOX IMVI = assay: NCI60 five-dose screen; type: cell-based; conditions: Homo sapiens, melanoma; for CC50: read-out: LC50 (the source's name)
SF-268 = assay: NCI60 five-dose screen; type: cell-based; conditions: Homo sapiens, SF-268, CNS cancer; for CC50: read-out: LC50 (the source's name)
SK-MEL-2 = assay: NCI60 five-dose screen; type: cell-based; conditions: Homo sapiens, SK-MEL-2, melanoma; for CC50: read-out: LC50 (the source's name)
OVCAR-3 = assay: NCI60 five-dose screen; type: cell-based; conditions: Homo sapiens, OVCAR-3, ovarian cancer; for CC50: read-out: LC50 (the source's name)
PC-3 = assay: NCI60 five-dose screen; type: cell-based; conditions: Homo sapiens, PC-3, prostate cancer; for CC50: read-out: LC50 (the source's name)
UO-31 = assay: NCI60 five-dose screen; type: cell-based; conditions: Homo sapiens, UO-31, renal cancer; for CC50: read-out: LC50 (the source's name)
HOP-62 = assay: NCI60 five-dose screen; type: cell-based; conditions: Homo sapiens, HOP-62, NSC lung cancer; for CC50: read-out: LC50 (the source's name)
OVCAR-5 = assay: NCI60 five-dose screen; type: cell-based; conditions: Homo sapiens, OVCAR-5, ovarian cancer; for CC50: read-out: LC50 (the source's name)
SK-MEL-28 = assay: NCI60 five-dose screen; type: cell-based; conditions: Homo sapiens, SK-MEL-28, melanoma; for CC50: read-out: LC50 (the source's name)
[1] = tested on: T47D breast cancer cell line; assay: Cytotoxicity MTT assay, T47D; type: cell-based, human; conditions: Homo sapiens, T47D; MTT, 48 hours
Summary of the method: (§1)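 Both lines were handled identically: 10 000 cells per well, overnight growth, 48 h with compound at the chosen concentrations, then 0.5 mg mL^−1 MTT for 3 h. Dissolved formazan was quantified at 570 nm against vehicle-treated wells.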

HT29 = assay: NCI60 five-dose screen; type: cell-based; conditions: Homo sapiens, HT-29, HT29, colon cancer; for CC50: read-out: LC50 (the source's name)
A498 = assay: NCI60 five-dose screen; type: cell-based; conditions: Homo sapiens, A498, renal cancer; for CC50: read-out: LC50 (the source's name)
[2] = tested on: L929 normal mouse fibroblast cell line; assay: Cytotoxicity MTT assay, L929; type: cell-based; conditions: IC50 (L929)/IC50 (T47D)
Summary of the method: as §1

[3] = Cytotoxicity MTT assay, L929; type: cell-based, mouse; conditions: mouse, L929 fibroblast cells; MTT, 48 hours
Summary of the method: as §1

SK-MEL-5 = assay: NCI60 five-dose screen; type: cell-based, human; conditions: for CC50: read-out: LC50 (the source's name)
BT-549 = assay: NCI60 five-dose screen; type: cell-based; conditions: Homo sapiens, BT-549, breast cancer; for CC50: read-out: LC50 (the source's name)
786-0 = assay: NCI60 five-dose screen; type: cell-based; conditions: Homo sapiens, 786-0, renal cancer; for CC50: read-out: LC50 (the source's name)
HOP-92 = assay: NCI60 five-dose screen; type: cell-based; conditions: Homo sapiens, HOP-92, NSC lung cancer; for CC50: read-out: LC50 (the source's name)
[4] = Homo sapiens, COLO 205, COLO 205, colon cancer
[5] = Homo sapiens, COLO 205, colon cancer
[6] = Homo sapiens, SK-MEL-5, SK-MEL-5, melanoma
[7] = Homo sapiens, SK-MEL-5, melanoma

Compound `Cc1cc(C)c(/C=N/NC(=O)c2[nH]c3ccc(Br)cc3c2-c2ccccc2)[nH]1` [Derivative 3c, (E)-5-Bromo-N′-((3,5-dimethyl-1H-pyrrol-2-yl)methylene)-3-phenyl-1H-2-carbohydrazide] has a GI50 (MDA-MB-468) of 2 µM, a CC50 (MDA-MB-468) of 26.4 µM and a GI50 (HCT-116) of 4.02 µM. The CC50 (HCT-116) was greater than 100 µM, the CC50 (COLO 205; [4]) was 52.3 µM and the GI50 (COLO 205; [5]) was 3.25 µM. It also gave a GI50 (CAKI-1) of 3.17 µM, a CC50 (CAKI-1) of 39.1 µM and a GI50 (RPMI-8226) of 2.43 µM. For the same compound, the CC50 (RPMI-8226) was greater than 100 µM, the GI50 (CCRF-CEM) was 3.07 µM and the CC50 (CCRF-CEM) was greater than 100 µM. For the same compound, the GI50 (ACHN) was 3.03 µM, the CC50 (ACHN) was 34.2 µM and the GI50 (IGROV1) was 2.47 µM. The GI50 (TK-10) was 7.32 µM, the CC50 (TK-10) was 45.2 µM and the GI50 (SNB-75) was 2.68 µM. For the same compound, the CC50 (SNB-75) was 43.9 µM, the GI50 (UACC-62) was 2.36 µM and the CC50 (UACC-62) was 32.4 µM. It also gave a GI50 (SN12C) of 2.58 µM, a CC50 (SN12C) of 32.3 µM and a GI50 (U251) of 3.21 µM. It also gave a CC50 (U251) of 35.7 µM, a GI50 (LOX IMVI) of 2.43 µM and a CC50 (LOX IMVI) of 30.2 µM. For the same compound, the GI50 (SF-268) was 2.98 µM, the CC50 (SF-268) was 53.2 µM and the GI50 (SK-MEL-2) was 3.37 µM. It also gave a CC50 (SK-MEL-2) of 41.7 µM, a GI50 (OVCAR-3) of 2.53 µM and a CC50 (OVCAR-3) of 36.4 µM. For the same compound, the GI50 (PC-3) was 2.06 µM, the CC50 (PC-3) was 47.6 µM and the GI50 (UO-31) was 1.77 µM. It also gave a CC50 (UO-31) of 33.8 µM, a GI50 (HOP-62) of 2.97 µM and a CC50 (HOP-62) of 69.3 µM. The GI50 (OVCAR-5) was 3.63 µM, the CC50 (OVCAR-5) was 37.6 µM and the GI50 (SK-MEL-28) was 3.81 µM. The CC50 (SK-MEL-28) was 38.8 µM, the IC50 [1] was 11.6 ± 0.3 µM and the GI50 (HT29) was 3.53 µM. The CC50 (HT29) was 46.6 µM, the GI50 (A498) was 8.25 µM and the CC50 (A498) was 46.9 µM. For the same compound, the “Selectivity index (SI)” value [2] was 2.54, the IC50 at 48 h [3] was 29.5 ± 12.6 µM and the CC50 (SK-MEL-5; [6]) was 19.3 µM. For the same compound, the GI50 (SK-MEL-5; [7]) was 2.52 µM, the CC50 (SK-MEL-5; SK-MEL-5, melanoma) was 28.8 µM and the GI50 (BT-549) was 5.04 µM. For the same compound, the CC50 (BT-549) was 47.9 µM, the GI50 (786-0) was 5.19 µM and the CC50 (786-0) was 63.9 µM. The GI50 (HOP-92) was 2.61 µM and the CC50 (HOP-92) was 43.5 µM.

In the case of `O=C(N/N=C/c1cc(Br)c[nH]1)c1[nH]c2ccc(Br)cc2c1-c1ccccc1` [Derivative 3e, (E)-5-Bromo-N′-((4-bromo-1H-pyrrol-2-yl)methylene)-3-phenyl-1H-indole-2-carbohydrazide], the GI50 (MDA-MB-468) is reported as 0.231 µM, the CC50 (MDA-MB-468) is reported as 13 µM and the GI50 (HCT-116) is reported as 0.242 µM. For the same compound, the CC50 (HCT-116) was 85 µM, the CC50 (COLO 205; COLO 205, colon cancer) was 0.884 µM and the CC50 (COLO 205; [4]) was 0.89 µM. The GI50 (COLO 205; [5]) was 0.192 µM, the GI50 (CAKI-1) was 0.329 µM and the CC50 (CAKI-1) was 29 µM. It also gave a GI50 (RPMI-8226) of 0.346 µM, a CC50 (RPMI-8226) greater than 100 µM and a GI50 (CCRF-CEM) of 0.341 µM. It also gave a CC50 (CCRF-CEM) greater than 100 µM, a GI50 (ACHN) of 0.418 µM and a CC50 (ACHN) of 23.5 µM. It also gave a GI50 (IGROV1) of 0.44 µM, a GI50 (TK-10) of 4.21 µM and a CC50 (TK-10) of 44.9 µM. The GI50 (SNB-75) was 0.475 µM, the CC50 (SNB-75) was 51 µM and the GI50 (UACC-62) was 0.439 µM. For the same compound, the CC50 (UACC-62) was 17.7 µM, the GI50 (SN12C) was 0.31 µM and the CC50 (SN12C) was 5.49 µM. It also gave a GI50 (U251) of 0.418 µM, a CC50 (U251) of 10.1 µM and a GI50 (LOX IMVI) of 0.36 µM. It also gave a CC50 (LOX IMVI) of 6.98 µM, a GI50 (SF-268) of 0.529 µM and a CC50 (SF-268) of 52.9 µM. For the same compound, the GI50 (SK-MEL-2) was 0.322 µM, the CC50 (SK-MEL-2) was 38.1 µM and the GI50 (OVCAR-3) was 0.302 µM. For the same compound, the CC50 (OVCAR-3) was 17.3 µM, the GI50 (PC-3) was 0.382 µM and the CC50 (PC-3) was 38.1 µM. It also gave a GI50 (UO-31) of 0.618 µM, a CC50 (UO-31) of 28.1 µM and a GI50 (HOP-62) of 0.546 µM. For the same compound, the CC50 (HOP-62) was greater than 100 µM, the GI50 (OVCAR-5) was 0.346 µM and the CC50 (OVCAR-5) was 26.5 µM. The GI50 (SK-MEL-28) was 0.612 µM, the CC50 (SK-MEL-28) was 43.9 µM and the IC50 [1] was 2.4 ± 1.4 µM. It also gave a GI50 (HT29) of 0.345 µM, a CC50 (HT29) of 8.24 µM and a GI50 (A498) of 5.47 µM. For the same compound, the CC50 (A498) was 44.5 µM, the “Selectivity index (SI)” value [2] was 9.29 and the IC50 at 48 h [3] was 22.3 ± 11.9 µM. It also gave a CC50 (SK-MEL-5; [6]) of 1.22 µM, a GI50 (SK-MEL-5; [7]) of 0.195 µM and a GI50 (BT-549) of 0.314 µM. The CC50 (BT-549) was 36.2 µM, the GI50 (786-0) was 0.727 µM and the CC50 (786-0) was 55.9 µM. It also gave a GI50 (HOP-92) of 1.51 µM and a CC50 (HOP-92) of 26.3 µM.
